US12281125B2, “Rapamycin derivatives” (NOVARTIS AG, priority 2018, dated 2025)

What was measured:
FKBP52 = target: T1, FKBP52 (Homo sapiens, UniProt Q02790); test: SPR assay, binding affinity to FKBP52; conditions: equilibrium dissociation constant
T1 construct: made in house; host or cells: E. coli
T1 sequence (Q02790 1-459): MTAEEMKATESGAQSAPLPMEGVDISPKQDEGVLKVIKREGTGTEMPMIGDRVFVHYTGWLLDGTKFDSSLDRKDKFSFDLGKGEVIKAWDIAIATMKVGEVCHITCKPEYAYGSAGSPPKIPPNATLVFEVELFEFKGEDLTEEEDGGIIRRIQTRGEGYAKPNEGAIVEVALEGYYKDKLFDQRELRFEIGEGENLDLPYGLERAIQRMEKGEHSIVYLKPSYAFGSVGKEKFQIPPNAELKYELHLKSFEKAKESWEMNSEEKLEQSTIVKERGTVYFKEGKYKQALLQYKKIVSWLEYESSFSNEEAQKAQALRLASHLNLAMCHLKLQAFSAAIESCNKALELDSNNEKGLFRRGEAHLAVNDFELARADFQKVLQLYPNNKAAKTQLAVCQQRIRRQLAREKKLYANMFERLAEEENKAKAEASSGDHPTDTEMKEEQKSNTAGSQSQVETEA
Method: (§1) N-terminal avi-his6-tagged FKBP fusion proteins were expressed in E. coli and purified with nickel chromatography using standard procedures. Biotinylated his-avi-FKBPs were immobilized on a streptavidin chip using a Biacore 8K (GE Healthcare). To determine the kinetics-affinity of the rapalogs for FKBPs, rapalogs were diluted in DMSO to 50× working concentration. Next, 3.1 uLs of each rapalog solution was added to 150 uLs of buffer (50 mM Tris pH 7.5/150 mM NaCl/0.01% Tween 20/1 mM DTT) in a 384 deep well plate (greiner bio-one/78127) and mixed using a Biomek FX. The rapalog solution gradients (6 concentrations/2 fold dilutions, 3.1-100 nM or 31-1000 nM or 310-10000 nM) were then injected at 45 uL/min for 120 seconds: contact time and dissociation time was 1800 seconds in running buffer (50 mM Tris pH 7.5/150 mM NaCl/0.01% Tween 20/1 mM DTT/2% DMSO). The single-cycle kinetics data were fit to a 1:1 binding model to measure the association rate ka (1/Ms), the dissociation rate kd (1/s) and the affinity KD (M). […] 3.1 uLs of the 500 μM rapalog solutions were added to 150 uLs of the mTOR samples in a 384 deep well plate (greiner bio-one/78127) and mixed using a Biomek FX. The mTOR solution gradients were then injected at 45 uL/min for 120 seconds: contact time and dissociation time was 1800 seconds in running buffer (50 mM Tris pH 7.5/150 mM NaCl/0.01% Tween 20/1 mM DTT/2% DMSO). The single-cycle kinetics data was fit to a 1:1 binding model to measure the association rate ka (1/Ms), the dissociation rate kd (1/s) and the apparent affinity KD (M) for ternary complex formation.
The equilibrium dissociation constants (KD) to FKBP12, FKBP51, and FKBP52 are shown below in Table 6.

[1] = target: T2, FKBP12.6-rapalog-mTOR (amino acids 2019-2112) ternary complex (Homo sapiens, UniProt P42345+P68106); test: SPR ternary complex formation, rapalog bound to FKBP12.6 with mTOR; format: binding; conditions: rapalog bound to FKBP with mTOR, read-out: FKBP12.6 apparent affinity KD for ternary complex formation
T2 construct: his^6-mTOR (amino acids 2019-2112) was diluted in buffer; made in house; host or cells: E. coli
T2 sequence (P68106 whole entry, the tested form may be a part): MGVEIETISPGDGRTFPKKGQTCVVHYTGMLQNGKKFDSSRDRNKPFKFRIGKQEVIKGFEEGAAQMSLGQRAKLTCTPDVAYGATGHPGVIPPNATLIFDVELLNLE
T2 sequence (P42345 2019-2112 limits assumed): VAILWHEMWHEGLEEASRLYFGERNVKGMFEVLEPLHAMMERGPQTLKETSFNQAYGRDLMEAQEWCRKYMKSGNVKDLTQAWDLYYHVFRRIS
Method: as §1, with “The single-cycle kinetics data was fit to a 1:1 binding model to measure the association rate ka (1/Ms), the dissociation rate kd (1/s) and the apparent affinity KD (M) for ternary complex formation.” left out

[2] = target: T3, FKBP51-rapalog-mTOR (amino acids 2019-2112) ternary complex (Homo sapiens, UniProt P42345+Q13451); test: SPR ternary complex formation, rapalog bound to FKBP51 with mTOR; format: binding; conditions: rapalog bound to FKBP with mTOR, read-out: FKBP51 apparent affinity KD for ternary complex formation
T3 construct: his^6-mTOR (amino acids 2019-2112) was diluted in buffer; made in house; host or cells: E. coli
T3 sequence (Q13451 whole entry, the tested form may be a part): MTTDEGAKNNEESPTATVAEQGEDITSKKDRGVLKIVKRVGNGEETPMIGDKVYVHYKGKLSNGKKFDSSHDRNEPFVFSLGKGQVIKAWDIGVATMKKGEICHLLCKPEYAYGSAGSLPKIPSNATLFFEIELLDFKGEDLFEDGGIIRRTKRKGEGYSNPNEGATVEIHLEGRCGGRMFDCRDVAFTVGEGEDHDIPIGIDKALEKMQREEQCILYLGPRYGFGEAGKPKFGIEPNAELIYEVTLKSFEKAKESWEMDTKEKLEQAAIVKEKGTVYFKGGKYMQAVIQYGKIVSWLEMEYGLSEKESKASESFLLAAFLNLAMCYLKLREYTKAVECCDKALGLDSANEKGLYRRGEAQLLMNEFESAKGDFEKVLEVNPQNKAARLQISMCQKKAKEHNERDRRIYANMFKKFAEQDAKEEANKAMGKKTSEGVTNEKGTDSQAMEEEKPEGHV
T3 sequence (P42345 2019-2112 limits assumed): as the sequence (P42345 2019-2112 limits assumed) above
Method: as §1, with “The single-cycle kinetics data was fit to a 1:1 binding model to measure the association rate ka (1/Ms), the dissociation rate kd (1/s) and the apparent affinity KD (M) for ternary complex formation.” left out

[3] = target: T4, FKBP52-rapalog-mTOR (amino acids 2019-2112) ternary complex (Homo sapiens, UniProt P42345+Q02790); test: SPR ternary complex formation, rapalog bound to FKBP52 with mTOR; format: binding; conditions: rapalog bound to FKBP with mTOR, read-out: FKBP52 apparent affinity KD for ternary complex formation
T4 construct: his^6-mTOR (amino acids 2019-2112) was diluted in buffer; made in house; host or cells: E. coli
T4 sequence (P42345 2019-2112 limits assumed, one chain of several): as the sequence (P42345 2019-2112 limits assumed) above
Method: as §1, with “The single-cycle kinetics data was fit to a 1:1 binding model to measure the association rate ka (1/Ms), the dissociation rate kd (1/s) and the apparent affinity KD (M) for ternary complex formation.” left out

[4] = test system: mTORC1 activity, S6K1 (Thr389) in FKBP12/12.6/13/52/51 knock-out 293T cells; test: S6K1(Thr389) phosphorylation ELISA in FKBP12/12.6/13/52/51 knock-out 293T cells; format: cell-based
From the text: (§2) A CRISPR/Cas9 system was used to deliver ribonucleoprotein complexes containing guide RNA (gRNA) sequences that target FKBP12
(§3) ([…], location 35620248) into 293T cells, using the Amaxa® 4D-Nucleofector™ X Kit (Lonza, V4XC-2032). Cell clones were screened by immunoblotting with anti-FKBP-specific antibodies: FKBP12 (Novus, NB300-508), FKBP12.6 (Abnova, H00002281-M01), FKBP13 (R&D Systems, MAB4356), FKBP25 (R&D Systems, MAB3955), FKBP52 (Cell signaling Technology, #11826) and FKBP51 (Cell signaling Technology, #12210). […] Quintuple FKBP12/12.6/13/52/51 knock-out and FKBP12/12.6/25/52/51 knock-out cells were generated by sequentially knocking out five FKBP genes.
(§4) WT, FKBP12 knock-out, FKBP12/12.6/13/52/51 knock-out or FKBP12/12.6/25/52/51 knock-out 293T cells were plated at a density of 30,000 cells per well in poly-D-Lysine coated 96-well plates (Corning, #354461) in Dulbecco's modified Eagle's medium (ThermoFisher, #11995-065) supplemented with 10% fetal bovine serum (ThermoFisher, #16140-071). Cells were incubated at 37° C., 5% CO2 for 48 hours until they reached ˜80% confluence. […] Media supplemented with blank Dimethyl sulfoxide (DMSO) was used as a control for both compounds. Phosphorylated amounts of S6K1 (Thr389) were detected by a sandwich ELISA kit (Cell signaling, #7063C) following the manufacture's protocol.

[5] = test system: mTORC1 activity, S6K1 (Thr389) in FKBP12/12.6/25/52/51 knock-out 293T cells; test: S6K1(Thr389) phosphorylation ELISA in FKBP12/12.6/25/52/51 knock-out 293T cells; format: cell-based
From the text: as §2, §3, §4

Row | Kd (FKBP52) [nM] | Kd [1] [nM] | Kd [2] [nM] | Kd [3] [nM] | SMILES | inhibitory effect (potency) on S6K1 (Thr389), in words [4] | inhibition of S6K1 (Thr389) ([4]; at the highest tested concentration) [%] | inhibitory effect (potency) on S6K1 (Thr389), in words [5]
1 | 374 | 55 | 52 | 36 | CO[C@@H]1C[C@H](C[C@@H](C)[C@@H]2CC[C@H](C)/C=C(\C)[C@@H](O)[C@@H](OC)C(=O)[C@H](C)C[C@H](C)/C=C/C=C/C=C(\C)[C@@H](NS(C)(=O)=O)C[C@@H]3CC[C@@H](C)[C@@](O)(O3)C(=O)C(=O)N3CCCC[C@H]3C(=O)O2)CC[C@H]1O [Compound 2] | efficacious in inhibiting S6K1 (Thr389) | ~90 | neither RAD001 nor Compound 2 were efficacious
2 | 1770 | 47 | 348 | 253 | CO[C@H]1C[C@@H]2CC[C@@H](C)[C@@](O)(O2)C(=O)C(=O)N2CCCC[C@H]2C(=O)O[C@H]([C@H](C)C[C@@H]2CC[C@@H](OCCO)[C@H](OC)C2)CC(=O)[C@H](C)/C=C(\C)[C@@H](O)[C@@H](OC)C(=O)[C@H](C)C[C@H](C)/C=C/C=C/C=C/1C [RAD001, everolimus, reference compound] | lost almost all it potency |  | neither RAD001 nor Compound 2 were efficacious
